# Data published in US20250163104A1, “MACROCYCLIC IMMUNOMODULATORS” (priority 2021, published 2025).
# *1 amine or outer side, *2 acyl side, *3 side chain or, on linkers, in order; H or OH if unused. Where a SMILES comes first, the peptide text is derived from it. Bridges are numbered along the chain shown (N, C = ends). [ ]: non-standard residue; d: D form. The star is where a group is joined. ξ: configuration not given here. X3 = O=C([C@H](CCCNC[C@@H](O)[C@H](O)[C@H](O)[C@@H](O)[C@H](O)CO)N[*:1])[*:2]; Phe(4-COOH) = N[C@@H](Cc1ccc(C(=O)O)cc1)C(=O)O; Bip = N[C@@H](Cc1ccc(-c2ccccc2)cc1)C(=O)O; Phe(3-Me) = Cc1cccc(C[C@H](N)C(=O)O)c1; Ala(cPent) = N[C@@H](CC1CCCC1)C(=O)O; Val(3-OH) = CC(C)(O)[C@H](N)C(=O)O; mTyr = N[C@@H](Cc1cccc(O)c1)C(=O)O; hArg = N=C(N)NCCCC[C@H](N)C(=O)O; 4Pal = N[C@@H](Cc1ccncc1)C(=O)O; Cha = N[C@@H](CC1CCCCC1)C(=O)O; Cit = NC(=O)NCCC[C@H](N)C(=O)O; NMeN = CN[C@@H](CC(N)=O)C(=O)O; Thr(3ξ) = CC(O)[C@H](N)C(=O)O; Carboxymethyl = O=C(O)C*; Nle = CCCC[C@H](N)C(=O)O; Orn = NCCC[C@H](N)C(=O)O; Pra = C#CC[C@H](N)C(=O)O; Dab = NCC[C@H](N)C(=O)O; Nva = CCC[C@H](N)C(=O)O; Dap = NC[C@H](N)C(=O)O; ξV = CC(C)C(N)C(=O)O; Propargyl = C#CC*; ξS = NC(CO)C(=O)O
# Molecular target: T1, human PD-1 / PD-L1-Ig binding on Jurkat cell line over-expressing human PD-1 (Jurkat-PD-1) (Homo sapiens, UniProt Q15116)
# T1 construct: expressed in transfected cells; host or cells: Jurkat
# T1 sequence (Q15116 25-288): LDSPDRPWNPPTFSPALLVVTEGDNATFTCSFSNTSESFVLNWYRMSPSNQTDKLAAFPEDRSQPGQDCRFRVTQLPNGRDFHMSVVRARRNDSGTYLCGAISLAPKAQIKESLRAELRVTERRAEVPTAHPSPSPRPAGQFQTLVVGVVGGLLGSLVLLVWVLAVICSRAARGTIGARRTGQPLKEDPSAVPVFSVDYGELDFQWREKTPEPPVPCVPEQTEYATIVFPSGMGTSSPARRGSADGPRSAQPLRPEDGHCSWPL
# Assay: Jurkat-PD-1 Cell Binding High-Content Screening Assay (CBA)
# Format: cell-based
# Settings: Jurkat HPD1_PDL1 IC50, Jurkat-PD-1 cells, PE-labeled PD-L1-Ig 20 nM final
# Outline: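 Jurkat cells over-expressing human PD-1, in DMEM/10% FCS, pre-incubated with compound 2 h at 37° C. PE-labeled human PD-L1-Ig (20 nM final) added for 1 h; cells fixed in paraformaldehyde with Hoechst 33342 nuclear stain, washed, and bound fluorescence quantified by high-content imaging.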
row,Compound,IC50 [nM]
1,CC(C)C[C@H]1NC(=O)[C@H](CCCN)NC(=O)[C@H](C(C)C)NC(=O)[C@H](Cc2ccc(-c3ccccc3)cc2)NC(=O)[C@H](CC2CCCC2)NC(=O)[C@H](Cc2c[nH]c3ccccc23)NC(=O)[C@H](CC(=O)O)NC(=O)[C@H](Cc2ccc(OCC(=O)O)cc2)NC(=O)[C@H](CN)NC(=O)CSC[C@@H](C(=O)N[C@@H](C)C(N)=O)NC(=O)[C@H]([C@@H](C)O)NC(=O)[C@H](C(C)C)NC(=O)[C@H](CC2CCCCC2)NC(=O)[C@H](CCN)NC1=O [Compound 1731] ({CH2CO}-[Dap]Y(Carboxymethyl)DW[Ala(cPent)][Bip]V[Orn][dL][Dab][Cha]VTCA-NH2; thioether N-14),13

# Same assay, conditions: Jurkat-PD-1 cells, PE-labeled PD-L1-Ig 20 nM final; read-out: Jurkat HPD1_PDL1 IC50
row,Compound,IC50 [nM]
1,C#CC[C@H](NC(=O)[C@@H]1CSCC(=O)N[C@@H](CCC)C(=O)N[C@@H](Cc2ccc(OCC(=O)O)cc2)C(=O)N[C@@H](CC(=O)O)C(=O)N[C@@H](Cc2cccc(C)c2)C(=O)N[C@@H](Cc2ccc(OCC(=O)O)cc2)C(=O)N[C@@H](Cc2ccc(-c3ccccc3)cc2)C(=O)N[C@@H](Cc2ccc(OCC(=O)O)cc2)C(=O)N[C@@H](CCCNC[C@@H](O)[C@H](O)[C@H](O)[C@@H](O)[C@H](O)CO)C(=O)N[C@H](CC(C)C)C(=O)N[C@@H](CCC)C(=O)N[C@@H](CC2CCCCC2)C(=O)N[C@@H](C(C)C)C(=O)N[C@@H](CCC(=O)O)C(=O)N1)C(=O)O [Compound 2698] ({CH2CO}-[Nva]Y(Carboxymethyl)D[Phe(3-Me)]Y(Carboxymethyl)[Bip]Y(Carboxymethyl)[X3][dL][Nva][Cha]VEC[Pra]-OH; thioether N-14),129
2,CC(C)C[C@@H]1NC(=O)[C@H](Cc2c[nH]c3ccccc23)NC(=O)[C@H](CC(=O)O)NC(=O)[C@H](Cc2ccc(O)cc2)NC(=O)[C@H](Cc2ccccc2)NC(=O)CSC[C@@H](C(=O)N[C@@H](C)C(N)=O)NC(=O)[C@H](CO)NC(=O)[C@H](C(C)C)NC(=O)[C@H](CC(C)C)NC(=O)[C@H](CCN)NC(=O)[C@@H](C)NC(=O)[C@H](CN)NC(=O)[C@H](C(C)C)NC(=O)[C@H](Cc2ccc(-c3ccccc3)cc2)NC1=O [Compound 1079] ({CH2CO}-FYDWL[Bip]V[Dap][dA][Dab]LVSCA-NH2; thioether N-14),29.5
3,CC(C)C[C@@H]1NC(=O)[C@H](CCN)NC(=O)[C@@H](CC(C)C)NC(=O)[C@H](CCCN)NC(=O)[C@H](CCCNC(N)=O)NC(=O)[C@H](Cc2ccc(-c3ccccc3)cc2)NC(=O)[C@H](C(C)C)NC(=O)[C@H](Cc2c[nH]c3ccccc23)NC(=O)[C@H](CC(=O)O)NC(=O)[C@H](Cc2ccncc2)NC(=O)[C@H](CN)NC(=O)CSC[C@@H](C(=O)N[C@@H](C)C(N)=O)NC(=O)[C@H]([C@@H](C)O)NC(=O)[C@H](C(C)C)NC1=O [Compound 1240] ({CH2CO}-[Dap][4Pal]DWV[Bip][Cit][Orn][dL][Dab]LVTCA-NH2; thioether N-14),119
4,CC(C)C[C@H]1NC(=O)[C@H](CCCN)NC(=O)[C@H](CCC(=O)O)NC(=O)[C@H](Cc2ccc(-c3ccccc3)cc2)NC(=O)[C@H](C(C)C)NC(=O)[C@H](Cc2cccc(C(F)(F)F)c2)NC(=O)[C@H](CC(=O)O)NC(=O)[C@H](Cc2ccc(O)cc2)NC(=O)[C@H](Cc2ccncc2)NC(=O)CSC[C@@H](C(=O)N[C@@H](C)C(N)=O)NC(=O)[C@H]([C@@H](C)O)NC(=O)[C@H](C(C)C)NC(=O)[C@H](CC2CCCCC2)NC(=O)[C@H](CCN)NC1=O [Compound 1464],25.8
5,CC(C)C[C@H]1NC(=O)[C@H](CCCN)NC(=O)[C@H](C(C)C)NC(=O)[C@H](Cc2ccc(-c3ccccc3)cc2)NC(=O)[C@H](C(C)C)NC(=O)[C@H](Cc2c[nH]c3ccccc23)NC(=O)[C@H](CC(=O)O)NC(=O)[C@H](Cc2ccc(OCC(=O)O)cc2)NC(=O)[C@H](C(C)O)NC(=O)CSC[C@@H](C(=O)N(C)[C@@H](CC(N)=O)C(N)=O)NC(=O)[C@H](CO)NC(=O)[C@H](C(C)C)NC(=O)[C@H](CC2CCCCC2)NC(=O)[C@H](CCN)NC1=O (stereo partly drawn) [Compound 2568] ({CH2CO}-[Thr(3ξ)]Y(Carboxymethyl)DWV[Bip]V[Orn][dL][Dab][Cha]VSC[NMeN]-NH2; thioether N-14),67.1
6,CC(C)C[C@H]1NC(=O)[C@H](CCCN)NC(=O)[C@H](C(C)C)NC(=O)[C@H](Cc2ccc(-c3ccccc3)cc2)NC(=O)[C@H](C(C)C)NC(=O)[C@H](Cc2c[nH]c3ccccc23)NC(=O)[C@H](CC(=O)O)NC(=O)[C@H](Cc2ccc(C(=O)O)cc2)NC(=O)[C@H](Cc2ccc(OCC(=O)O)cc2)NC(=O)CSC[C@@H](C(=O)N[C@@H](C)C(N)=O)NC(=O)[C@H]([C@@H](C)O)NC(=O)[C@H](C(C)C)NC(=O)[C@H](Cc2ccc(O)cc2)NC(=O)[C@H](CCN)NC1=O [Compound 1682] ({CH2CO}-Y(Carboxymethyl)[Phe(4-COOH)]DWV[Bip]V[Orn][dL][Dab]YVTCA-NH2; thioether N-14),66

# Next, values leading:
row,IC50 [nM],Compound
1,23.9,CC[C@H](C)[C@@H]1NC(=O)[C@H](Cc2ccc(-c3ccccc3)cc2)NC(=O)[C@H](C(C)C)NC(=O)[C@H](Cc2c[nH]c3ccccc23)NC(=O)[C@H](CC(=O)O)NC(=O)[C@H](Cc2ccc(O)cc2)NC(=O)[C@H](CC(N)=O)NC(=O)CSC[C@@H](C(=O)NCC(N)=O)NC(=O)[C@H]([C@@H](C)O)NC(=O)[C@H](C(C)C)NC(=O)[C@H](CC(C)C)NC(=O)[C@H](CCN)NC(=O)[C@@H](CC(C)C)NC(=O)[C@H](CCN)NC1=O [Compound 1126] ({CH2CO}-NYDWV[Bip]I[Dab][dL][Dab]LVTCG-NH2; thioether N-14)
2,15.3,Cc1cccc(C[C@@H]2NC(=O)[C@H](CC(=O)O)NC(=O)[C@H](Cc3ccc(OCC(=O)O)cc3)NC(=O)[C@H](CCCCNC(=N)N)NC(=O)CSC[C@@H](C(=O)N[C@@H](CCCN)C(=O)NC(CO)C(N)=O)NC(=O)[C@H](CO)NC(=O)C(C(C)C)NC(=O)[C@H](CC3CCCCC3)NC(=O)[C@H](CCN)NC(=O)[C@@H](CC(C)C)NC(=O)[C@H](CCCN)NC(=O)[C@H](CCCNC(N)=O)NC(=O)[C@H](Cc3ccc(-c4ccccc4)cc3)NC(=O)[C@H](C(C)C)NC2=O)c1 (stereo partly drawn) [Compound 2592] ({CH2CO}-[hArg]Y(Carboxymethyl)D[Phe(3-Me)]V[Bip][Cit][Orn][dL][Dab][Cha][ξV]SC[Orn][ξS]-NH2; thioether N-14)
3,12.8,Cc1cccc(C[C@@H]2NC(=O)[C@H](CC(=O)O)NC(=O)[C@H](Cc3ccc(C(=O)O)cc3)NC(=O)[C@H](Cc3ccncc3)NC(=O)CSC[C@@H](C(N)=O)NC(=O)[C@H](CCCN)NC(=O)[C@H](C(C)C)NC(=O)[C@H](CC3CCCCC3)NC(=O)[C@H](CCN)NC(=O)[C@@H](CC(C)C)NC(=O)[C@H](CCCN)NC(=O)[C@H](CCCNC(N)=O)NC(=O)[C@H](Cc3ccc(-c4ccccc4)cc3)NC(=O)[C@H](C(C)C)NC2=O)c1 [Compound 2265] ({CH2CO}-[4Pal][Phe(4-COOH)]D[Phe(3-Me)]V[Bip][Cit][Orn][dL][Dab][Cha]V[Orn]C-NH2; thioether N-14)
4,10.7,CCCC[C@@H]1NC(=O)[C@H](CCN)NC(=O)[C@@H](CC(C)C)NC(=O)[C@H](CCCN)NC(=O)[C@H](C(C)C)NC(=O)[C@H](Cc2ccc(-c3ccccc3)cc2)NC(=O)[C@H](C(C)C)NC(=O)[C@H](Cc2cccc(C)c2)NC(=O)[C@H](CC(=O)O)NC(=O)[C@H](Cc2ccc(C(=O)O)cc2)NC(=O)[C@H](CN)NC(=O)CSC[C@@H](C(=O)N[C@@H](C)C(N)=O)NC(=O)[C@H]([C@@H](C)O)NC(=O)[C@H](C(C)C)NC1=O [Compound 1205] ({CH2CO}-[Dap][Phe(4-COOH)]D[Phe(3-Me)]V[Bip]V[Orn][dL][Dab][Nle]VTCA-NH2; thioether N-14)
5,5.2,Cc1cccc(C[C@@H]2NC(=O)[C@H](CC(=O)O)NC(=O)[C@H](Cc3ccc(C(=O)O)cc3)NC(=O)[C@H](Cc3ccncc3)NC(=O)CSC[C@@H](C(=O)N[C@@H](CCN)C(N)=O)NC(=O)[C@H](CO)NC(=O)[C@H](C(C)(C)O)NC(=O)[C@H](CC3CCCCC3)NC(=O)[C@H](CCN)NC(=O)[C@@H](CC(C)C)NC(=O)[C@H](CCCN)NC(=O)[C@H](Cc3ccc(OCC(=O)O)cc3)NC(=O)[C@H](Cc3ccc(-c4ccccc4)cc3)NC(=O)[C@H](Cc3ccc(OCC(=O)O)cc3)NC2=O)c1 [Compound 2293] ({CH2CO}-[4Pal][Phe(4-COOH)]D[Phe(3-Me)]Y(Carboxymethyl)[Bip]Y(Carboxymethyl)[Orn][dL][Dab][Cha][Val(3-OH)]SC[Dab]-NH2; thioether N-14)
6,2.8,CCNC(=O)[C@H](CCN)NC(=O)[C@@H]1CSCC(=O)N[C@@H](CN)C(=O)N[C@@H](Cc2ccc(OCC(=O)O)cc2)C(=O)N[C@@H](CC(=O)O)C(=O)N[C@@H](Cc2cccc(O)c2)C(=O)N[C@@H](Cc2ccc(O)cc2)C(=O)N[C@@H](Cc2ccc(-c3ccccc3)cc2)C(=O)N[C@@H](Cc2ccc(O)cc2)C(=O)N[C@@H](CCCN)C(=O)N[C@H](CC(C)C)C(=O)N[C@@H](CCN)C(=O)N[C@@H](CC2CCCCC2)C(=O)N[C@@H](C(C)C)C(=O)N[C@@H](CCCN)C(=O)N1 [Compound 2047] ({CH2CO}-[Dap]Y(Carboxymethyl)D[mTyr]Y[Bip]Y[Orn][dL][Dab][Cha]V[Orn]C[Dab]-NHEt; thioether N-14)
7,2.4,C#CCOc1ccc(C[C@@H]2NC(=O)[C@H](Cc3cccc(C)c3)NC(=O)[C@H](CC(=O)O)NC(=O)[C@H](Cc3ccc(OCC(=O)O)cc3)NC(=O)[C@H]([C@@H](C)O)NC(=O)CSC[C@@H](C(=O)N[C@@H](CCN)C(N)=O)NC(=O)[C@H](CCC(=O)O)NC(=O)[C@H](C(C)C)NC(=O)[C@H](CC3CCCCC3)NC(=O)[C@H](CCN)NC(=O)[C@@H](CC(C)C)NC(=O)[C@H](CCCN)NC(=O)[C@H](Cc3ccc(OCC(=O)O)cc3)NC(=O)[C@H](Cc3ccc(-c4ccccc4)cc3)NC2=O)cc1 [Compound 1829] ({CH2CO}-TY(Carboxymethyl)D[Phe(3-Me)]Y(Propargyl)[Bip]Y(Carboxymethyl)[Orn][dL][Dab][Cha]VEC[Dab]-NH2; thioether N-14)
